Data from ChEMBL document CHEMBL1287660, “Pharmacophore modeling and virtual screening studies for new VEGFR-2 kinase inhibitors” (Eur J Med Chem, 2010).
pIC50: −log10 of the molar value.

Target: Vascular endothelial growth factor receptor 2 (Homo sapiens, UniProt P35968)
Sequence (P35968 whole entry): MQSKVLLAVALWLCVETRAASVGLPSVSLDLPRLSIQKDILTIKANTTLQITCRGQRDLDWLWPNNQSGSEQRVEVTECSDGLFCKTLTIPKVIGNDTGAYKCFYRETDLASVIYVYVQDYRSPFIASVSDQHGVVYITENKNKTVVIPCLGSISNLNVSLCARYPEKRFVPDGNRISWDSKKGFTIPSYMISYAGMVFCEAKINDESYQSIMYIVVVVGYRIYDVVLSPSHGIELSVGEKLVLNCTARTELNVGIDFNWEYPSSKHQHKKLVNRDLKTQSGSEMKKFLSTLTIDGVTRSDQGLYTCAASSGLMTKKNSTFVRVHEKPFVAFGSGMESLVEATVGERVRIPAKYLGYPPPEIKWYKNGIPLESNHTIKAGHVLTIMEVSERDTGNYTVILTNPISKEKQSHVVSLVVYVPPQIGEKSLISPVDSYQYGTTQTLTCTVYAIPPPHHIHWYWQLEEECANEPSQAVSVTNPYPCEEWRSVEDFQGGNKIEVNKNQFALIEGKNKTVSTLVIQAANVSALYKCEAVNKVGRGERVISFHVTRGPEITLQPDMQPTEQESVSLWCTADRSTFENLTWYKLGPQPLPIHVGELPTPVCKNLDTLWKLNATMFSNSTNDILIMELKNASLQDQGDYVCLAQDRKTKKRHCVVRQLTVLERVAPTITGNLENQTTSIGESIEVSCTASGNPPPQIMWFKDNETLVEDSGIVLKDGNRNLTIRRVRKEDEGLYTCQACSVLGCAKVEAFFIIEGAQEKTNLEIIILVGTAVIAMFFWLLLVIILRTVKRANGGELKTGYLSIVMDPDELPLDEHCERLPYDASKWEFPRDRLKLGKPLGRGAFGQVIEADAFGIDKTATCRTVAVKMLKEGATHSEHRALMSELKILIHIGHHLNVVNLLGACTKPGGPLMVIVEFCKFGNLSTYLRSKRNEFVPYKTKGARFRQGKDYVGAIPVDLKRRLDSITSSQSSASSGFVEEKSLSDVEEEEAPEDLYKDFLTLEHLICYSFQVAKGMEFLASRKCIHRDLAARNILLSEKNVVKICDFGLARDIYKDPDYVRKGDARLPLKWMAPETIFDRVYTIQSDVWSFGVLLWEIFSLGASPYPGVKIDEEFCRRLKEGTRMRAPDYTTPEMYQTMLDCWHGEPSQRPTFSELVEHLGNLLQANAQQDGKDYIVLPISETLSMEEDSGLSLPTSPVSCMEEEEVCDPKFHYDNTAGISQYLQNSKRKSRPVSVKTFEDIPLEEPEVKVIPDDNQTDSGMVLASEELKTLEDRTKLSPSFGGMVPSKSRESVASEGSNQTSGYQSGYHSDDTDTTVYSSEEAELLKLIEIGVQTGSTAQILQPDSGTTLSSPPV

| pIC50 | Compound |
| --- | --- |
| 8.23 | COc1ccc(OC)c(NC(=O)c2ccc(CSc3ncnc4[nH]cnc34)cc2)c1 |
| 8.25 | NC(=O)c1cc(-c2ccccc2)sc1NC(=O)c1ccc(OC(F)F)cc1 |
| 8.47 | C[C@@H]1Oc2ccc(-c3csc(NC(=O)c4cccc(Cl)c4)n3)cc2NC1=O |
| 8.00 | Cc1nc2ccccc2n1C1CCN(CC(=O)Nc2ccccc2Br)CC1 [ASN06356088] |
| 8.54 | CCOC(=O)CSc1nc2c(c(=O)[nH]c(=O)n2C)n1Cc1cccc(C)c1 |
| 8.22 | CNC(=O)c1cc(COc2nnc(Nc3ccc(Cl)cc3)c3ccoc23)ccn1 [TELATINIB] |
| 9.47 | CNC(=O)c1csc2cc(Oc3ccnc4cc(C5=NCCN5C)sc34)ccc12 |
| 8.39 | O=C(Nc1ccc(Oc2ncnc3sc4c(c23)CCCC4)cc1)c1ccccc1 |
| 8.30 | O=C(COc1cccc(NC(=O)c2cccnc2)c1)Nc1ccc(Br)cc1 [ASN01107570] |
| 8.38 | Cc1ccc2nc(NC(=O)Cc3csc(NC(=O)Nc4cccc(Cl)c4)n3)sc2c1 |
| 8.80 | COc1ccccc1NC(=O)c1ccc(CSc2nnc3c(n2)[nH]c2ccccc23)cc1 |
| 8.39 | CCOc1ccc(Nc2cnnc(Nc3ccc(OCC)cc3)n2)cc1 |
